The values below come from US6426340B1, “Prevention and treatment of colorectal cancer by 6-fluoroursodeoxycholic acid (6-FUDCA)” (Novartis AG, priority 1996, dated 2002).

Marks after values point to notes of the source that are not given here.

For series [1], the system named is aberrant crypt foci (ACF) in AOM rat model. The series is described as follows: Development of ACF in AOM rat model, 5 weeks study. The format is in vivo, Male albino Fischer-344 rats. The note with it: diet with UDCA 0.4%, 6-FUDCA 0.4% or piroxicam 75 ppm, means ± Std. Dev., N=10. The text has this: Animals. Male albino Fischer-344 rats, initially weighing approximately 90-130 g, were used in these experiments. All diets were obtained from Dyets, Inc. (Bethlehem, Pa.). On arrival, the animals were quarantined for 1 week and then divided into the following experimental groups: Group 1—Standard AIN-76 diet only with no added agents (control group). Group 2—AIN-76 diet plus UDCA 0.4%. Group 3—AIN-76 diet plus 6-FUDCA 0.4%. Group 4—AIN-76 diet plus piroxicam 75 ppm (included for a known positive drug control). Protocol of Study. All rats were fed their assigned diets for 2 weeks, following which 10 rats in each group (except control group) were given s.c. injections of AOM (Sigma Chemical Co.; 15 mg/kg body weight) once a week for 2 weeks, while 5 rats received AOM vehicle. Control rats received AOM vehicle only. A week later (at week 3) rats received a second dose of carcinogen (AOM 15 mg/kg) while control rats received AOM vehicle. Each group was then maintained on their respective experimental diet for an additional 3 weeks. At this time, day 42, the rats were sacrificed; their colons were removed, opened, washed with normal saline, and examined macroscopically and microscopically for the presence of tumors. Aberrant crypts were quantified by direct microscopic counting of methylene blue stained whole colon. Stool specimens were removed from the colon at the time of termination, snap frozen, and maintained frozen for subsequent analysis of fecal bile acids. Statistical Methods. The data were analyzed using the Aspin-Welch t-test, two sided. A value of P<0.05 was considered significant.

For series [2] the test system is unchanged. Put plainly: Development of ACF in AOM rat model, 12 weeks study. Format: in vivo, Male albino Fischer-344 rats. The note with it: for Multiplicity of ACF / Nr of ACF / Total AC count: AOM rat model, 12 weeks study, diet supplementation, means ± Std. Dev., N=12. The procedure:
Animals. Male albino Fischer-344 rats, initially weighing approximately 90-130 g, were used in these experiments. All diets were obtained from Dyets, Inc. (Bethlehem, Pa.). On arrival, the animals were quarantined for 1 week and then divided into the following experimental groups: Protocol of Study. […] Control rats received AOM vehicle only. A week later (at week 3) rats received a second dose of carcinogen (AOM 15 mg/kg) while control rats received AOM vehicle. […] Aberrant crypts were quantified by direct microscopic counting of methylene blue stained whole colon. Stool specimens were removed from the colon at the time of termination, snap frozen, and maintained frozen for subsequent analysis of fecal bile acids. Statistical Methods. The data were analyzed using the Aspin-Welch t-test, two sided. A value of P<0.05 was considered significant. The protocol for this Example was the same as that for Example I except that 12 rats were included in each AOM-treated group and 6 rats in each control group. Carcinogen was administered on Days 14 and 21. The rats were then continued on the diets containing the experimental drugs for an additional 10 weeks. The following tables set forth the data obtained in the study.

A short description of series [3]: Analysis of fecal bile acid levels in the diet-supplemented rats. The format is in vivo. How it is done:
Protocol of Study. All rats were fed their assigned diets for 2 weeks, following which 10 rats in each group (except control group) were given s.c. injections of AOM (Sigma Chemical Co.; 15 mg/kg body weight) once a week for 2 weeks, while 5 rats received AOM vehicle. Control rats received AOM vehicle only. A week later (at week 3) rats received a second dose of carcinogen (AOM 15 mg/kg) while control rats received AOM vehicle. Each group was then maintained on their respective experimental diet for an additional 3 weeks. At this time, day 42, the rats were sacrificed; their colons were removed, opened, washed with normal saline, and examined macroscopically and microscopically for the presence of tumors. Aberrant crypts were quantified by direct microscopic counting of methylene blue stained whole colon. Stool specimens were removed from the colon at the time of termination, snap frozen, and maintained frozen for subsequent analysis of fecal bile acids.
Therefore, 6-FUDCA enriches rat bile with therapeutic bile acid to a greater extent then can UDCA. Furthermore, 6-FUDCA reduces the formation of bile acids which are potentially toxic to the colonic mucosa.

A short description of series [4]: Physicochemical properties of 6-FUDCA compared with UDCA. From the text: Additionally, the retention time on C-18 reverse phase HPLC was different for the two fluorinated diastereoisomers. […] The invention relates to the single isomers or diastereoisomers of 6-FUDCA and mixtures thereof.
For series [5], the system named is intestinal bacterial flora. The settings on record: 7-dehydroxylation by intestinal bacterial flora; cited from earlier work.

Take `C[C@H](CCC(=O)O)[C@H]1CC[C@H]2[C@@H]3[C@@H](O)[C@H](F)[C@@H]4C[C@H](O)CC[C@]4(C)[C@H]3CC[C@]12C` [6-FUDCA, 3α, 7βdihydroxy-6α-fluoro-5β-cholanoic acid]: in series [1], the “Multiplicity of ACF” value is recorded as 1.9 ± 0.1^b), the “Nr of ACF” value turned out to be 84.4 ± 16.3 and the “Total AC count” value was 160.7 ± 34.6^b). Besides, in series [2], the “Multiplicity of ACF” value is on record as 2.7 ± 0.3^b), the “Nr of ACF” value is on record as 130.1 ± 35.5^b) and the “Total AC count” value is recorded as 350.6 ± 87.3^b). Besides, the “Aberrant crypts per aberrant crypt focus (FIG. 3)” value in series [2] (rats treated with 6-FUDCA, AOM model) was “aberrant crypt foci with fewer aberrant crypts”. The “DC and hyoDC in the feces” value in series [3] (6-FUDCA rats compared with UDCA rats) was “less DC and hyoDC are seen in the feces of 6-FUDCA rats than in UDCA rats”. For the same molecule, the “Metabolism by bacteria in the gut” value in series [3] (rat, fecal bile acid analysis) was “not metabolized by bacteria in the gut”. Also, the “Hydrophilicity (C-18 reverse phase HPLC)” value in series [4] (6-α-epimer, with respect to UDCA) is recorded as “increased hydrophilicity with respect to UDCA”. In addition, in series [4] (compared with UDCA), the Critical micellar concentration result is recorded as “slightly lower”, the “Critical micellar pH” value is recorded as “lower than that of UDCA” and the Water solubility entry is “higher than that of UDCA”. In addition, the “Resistance to bacterial dehydroxylation” value in series [5] is given as “extremely resistant to bacterial dehydroxylation”.

As to `CN1C(C(=O)Nc2ccccn2)=C(O)c2ccccc2S1(=O)=O` [PIROXICAM, piroxicam], in series [1], the “Multiplicity of ACF” value stood at 3.0 ± 0.2, the “Nr of ACF” value is listed as 62.9 ± 9.4^b) and the “Total AC count” value is listed as 190.1 ± 30.7^b). Also, in series [2], the “Multiplicity of ACF” value turned out to be 3.4 ± 0.3, the “Nr of ACF” value is reported as 156.3 ± 34.0^b) and the “Total AC count” value is 625.3 ± 136.1^b).

Turning to `C[C@H](CCC(=O)O)[C@H]1CC[C@H]2[C@@H]3[C@@H](O)C[C@@H]4C[C@H](O)CC[C@]4(C)[C@H]3CC[C@]12C` [UDCA, ursodeoxycholic acid], in series [1], the “Multiplicity of ACF” value is on record as 2.0 ± 0.2^b), the “Nr of ACF” value is 108.1 ± 34.7 and the “Total AC count” value was 218.3 ± 73.3^b). For the same molecule, in series [2], the “Multiplicity of ACF” value is recorded as 2.8 ± 0.2^b), the “Nr of ACF” value is 161.2 ± 37.8^b) and the “Total AC count” value is 445.5 ± 87.4^b).
